Read-outs that look alike come from different tables or passages of the source.
Target: human PDE10A2 (Homo sapiens (Human), UniProt Q9Y233)
Assay: PDE10 fluorescence polarization (IMAP FP) inhibition assay
Type: biochemical
Description: The activity of the compounds in accordance with the present invention as PDE10 inhibitors may be readily determined without undue experimentation using a fluorescence polarization (FP) methodology that is well known in the art (Huang, W., et al., J. Biomol Screen, 2002, 7: 215).
In a typical experiment the PDE10 inhibitory activity of the compounds of the present invention was determined in accordance with the following experimental method. PDE10A2 was amplified from human fetal brain cDNA (Clontech, Mountain View, Calif.) using a forward primer corresponding to nucleotides 56-77 of human PDE10A2 (Accession No. AF127480, Genbank Identifier 4894716), containing a Kozak consensus sequence, and a reverse primer corresponding to nucleotides 2406-2413 of human PDE10A2 (Accession No. AF127480, Genbank Identifier 4894716). Amplification with Easy-A polymerase (Stratagene, La Jolla, Calif.) was 95° C. for 2 minutes followed by thirty three cycles of 95° C. for 40 seconds, 55° C. for 30 seconds, and 72° C. for 2 minutes 48 seconds. Final extension was 72° C. for 7 minutes. The PCR product was TA cloned into pcDNA3.2-TOPO (Invitrogen, Carlsbad, Calif.) according to standard protocol. AD293 cells with 70-80% confluency were transiently transfected with human PDE10A2/pcDNA3.2-TOPO using Lipofectamine 2000 according to manufacturer specifications (Invitrogen, Carlsbad, Calif.). Cells were harvested 48 hours post-transfection and lysed by sonication (setting 3, 10×5 sec pulses) in a buffer containing 20 mM HEPES, 1 mM EDTA and protease inhibitor cocktail (Roche). Lysate was collected by centrifugation at 75,000×g for 20 minutes. Supernatant containing the cytoplasmic fraction was used for evaluation of PDE10A2 activity. The fluorescence polarization assay for cyclic nucleotide phosphodiesterases was performed using an IMAP® FP kit supplied by Molecular Devices, Sunnyvale, Calif. (product #R8139). IMAP® technology has been applied previously to phosphodiesterase assays (Huang, W., et al., J. Biomol Screen, 2002, 7: 215). Assays were performed at room temperature in 384-well microtiter plates with an incubation volume of 20.2 μl. Solutions of test compounds were prepared in DMSO and serially diluted with DMSO to yield 8 μL of each of 10 solutions differing by 3-fold in concentration, at 32 serial dilutions per plate. 100% inhibition is determined using a known PDE10 inhibitor, which can be any compound that is present at 5,000 times its Ki value in the assay described as follows, such as papaverine (see Siuciak, et al. Neuropharmacology (2006) 51:386-396; Becker, et al. Behav Brain Res (2008) 186(2):155-60; Threlfell, et al., J Pharmacol Exp Ther (2009) 328(3):785-795), 2-{4-[pyridin-4-yl-1-(2,2,2-trifluoroethyl)-1H-pyrazol-3-yl]phenoxymethyl}quinoline succinic acid or 2-[4-(1-methyl-4-pyridin-4-yl-1H-pyrazol-3-yl)-phenoxymethyl]quinoline succinic acid (see Schmidt, et al. J Pharmacol Exp Ther (2008) 325:681-690; Threlfell, et al., J Pharmacol Exp Ther (2009) 328(3): 785-795). 0% of inhibition is determined by using DMSO (1% final concentrations).
A Labcyte Echo 555 (Labcyte, Sunnyvale, Calif.) is used to dispense 200 nL from each well of the titration plate to the 384 well assay plate. A solution of enzyme (1/1600 dilution from aliquots; sufficient to produce 20% substrate conversion) and a separate solution of FAM-labeled cAMP PDE from Molecular Devices (product #R7506), at a final concentration of 50 nM are made in the assay buffer (10 mM Tris HCl, pH 7.2, 10 mM MgCl2, 0.05% NaN3 0.01% Tween-20, and 1 mM DTT). The enzyme and the substrate are then added to the assay plates in two consecutive additions of 10 μL, and then shaken to mix. The reaction is allowed to proceed at room temperature for 30 minutes. A binding solution is then made from the kit components, comprised of 80% Solution A, 20% Solution B and binding reagent at a volume of 1/600 the total binding solution. […]

[1] = human PDE10A2 lysate, IMAP FP, 50 nM FAM-labeled cAMP, room temperature, read-out: PDE10A Ki
[2] = human PDE10 enzyme, aforementioned assays, read-out: Ki for inhibiting the human PDE10 enzyme (range given)

Sequence of human PDE10A2 (Q9Y233 267-1055): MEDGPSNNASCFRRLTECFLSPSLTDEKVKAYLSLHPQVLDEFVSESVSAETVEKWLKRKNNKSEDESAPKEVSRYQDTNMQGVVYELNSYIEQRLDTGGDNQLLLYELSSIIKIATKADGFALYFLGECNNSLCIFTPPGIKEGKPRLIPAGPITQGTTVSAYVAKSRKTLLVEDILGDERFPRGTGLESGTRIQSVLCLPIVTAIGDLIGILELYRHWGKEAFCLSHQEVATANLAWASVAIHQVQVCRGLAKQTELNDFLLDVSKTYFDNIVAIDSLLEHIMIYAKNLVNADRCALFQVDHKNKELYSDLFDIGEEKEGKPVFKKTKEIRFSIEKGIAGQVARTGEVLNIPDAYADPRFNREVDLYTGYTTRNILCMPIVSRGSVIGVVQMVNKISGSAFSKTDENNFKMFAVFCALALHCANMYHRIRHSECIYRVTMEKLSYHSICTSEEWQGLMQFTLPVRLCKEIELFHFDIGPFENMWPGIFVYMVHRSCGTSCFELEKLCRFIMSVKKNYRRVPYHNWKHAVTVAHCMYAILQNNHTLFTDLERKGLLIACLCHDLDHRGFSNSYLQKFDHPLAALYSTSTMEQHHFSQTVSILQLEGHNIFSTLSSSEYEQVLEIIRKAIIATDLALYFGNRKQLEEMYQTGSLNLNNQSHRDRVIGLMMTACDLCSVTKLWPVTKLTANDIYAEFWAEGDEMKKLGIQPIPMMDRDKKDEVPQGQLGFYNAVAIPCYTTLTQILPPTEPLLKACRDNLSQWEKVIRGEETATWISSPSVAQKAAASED

Row | Ki [1] | Ki [2] | Structure (SMILES)
1 | 37 nM | – | O=c1n(CCc2ccc3ccccc3n2)nc2c(Br)cccn12 [Compound 1-6]
2 | 59 nM | – | O=c1n(CCc2ccc3ccccc3n2)nc2cccc(Br)n12 [Compound 2-4, 5-bromo-2-(2-quinolin-2-ylethyl)[1,2,4]triazolo[4,3-a]pyridin-3(2H)-one]
3 | 155 nM | – | O=c1n(CCc2ccc3ccccc3n2)nc2ccc(Br)cn12 [Compound 3-4, 6-bromo-2-(2-quinolin-2-ylethyl)[1,2,4]triazolo[4,3-a]pyridin-3(2H)-one]
4 | 22 nM | – | O=c1n(CCc2ccc3ccccc3n2)nc2c(-c3ncco3)cccn12 [Compound 4-1, 8-(1,3-oxazol-2-yl)-2-(2-quinolin-2-ylethyl)[1,2,4]triazolo[4,3-a]pyridin-3(2H)-one]
5 | 4.4 nM | 0.1 to 10 nM | O=c1n(CCc2ccc3ccccc3n2)nc2cccc(-c3ccncc3)n12 [Compound 5-1, 5-pyridin-4-yl-2-(2-quinolin-2-ylethyl)[1,2,4]triazolo[4,3-a]pyridin-3(2H)-one]
6 | 2.5 nM | 0.1 to 10 nM | O=c1n(CCc2ccc3ccccc3n2)nc2cccc(N3CCOCC3)n12 [Compound 6-1, 5-morpholin-4-yl-2-(2-quinolin-2-ylethyl)[1,2,4]triazolo[4,3-a]pyridin-3(2H)-one]
7 | 11 nM | – | COc1ccc(C(C)(O)c2cccc3nn(CCc4ccc5ccccc5n4)c(=O)n23)cc1 (stereo not shown) [Compound 7-2, 5-[1-hydroxy-1-(4-methoxyphenyl)ethyl]-2-(2 - quinolin-2-ylethyl)[1,2,4]triazolo[4,3-a]pyridin-3(2H)-one]
8 | 97 nM | – | O=C(Nc1cccnc1)c1cccc2nn(CCc3ccc4ccccc4n3)c(=O)n12 [Compound 8-2, 3-oxo-N-pyridin-3-yl-2-(2-quinolin-2-ylethyl)-2,3-dihydro[1,2,4]triazolo[4,3-a]pyridine-5-carboxamide]
9 | 510 nM | – | O=c1n(CCc2ccc3ccccc3n2)nc2ccc(-c3cccnc3)cn12 [Compound 9-1, 6-pyridin-3-yl-2-(2-quinolin-2-ylethyl)[1,2,4]triazolo[4,3-a]pyridin-3(2H)-one]
10 | 103 nM | – | O=c1n(CCc2ccc3ncccc3n2)nc2c(-c3ccncc3)cccn12 [Compound 10-4, 2-[2-(1,5-naphthyridin-2-yl)ethyl]-8-pyridin-4-yl[1,2,4]triazolo[4,3-a]pyridin-3(2H)-one]
11 | 7.2 nM | 0.1 to 10 nM | Cn1cc(-c2ccccc2)nc1CCn1nc2cccc(Br)n2c1=O [Compound 11-4, 5-bromo-2-[2-(1-methyl-4-phenyl-1H-imidazol-2-yl)ethyl][1,2,4]triazolo[4,3-a]pyridin-3(2H)-one]
12 | 0.41 nM | 0.1 to 10 nM | Cn1cc(-c2ccccc2)nc1CCn1nc2cccc(N3CCOCC3)n2c1=O [Compound 12-1, 2-[2-(1-methyl-4-phenyl-1H-imidazol-2-yl)ethyl]-5-morpholin-4-yl[1,2,4]triazolo[4,3-a]pyridin-3(2H)-one]
13 | 546 nM | – | O=c1n(C[C@@H]2C[C@H]2c2ccccn2)nc2cccc(N3CCOCC3)n12 [Compound 13-6, 5-morpholino-2-(((1R,2R)-2-(pyridin-2-yl)cyclopropyl)methyl)-[1,2,4]triazolo[4,3-a]pyridin-3(2H)-one]
14 | 9 nM | 0.1 to 10 nM | O=c1n(CCc2ccc3ccccc3n2)nc2cccc(-c3cccnc3)n12 [Compound A-1, 5-pyridin-3-yl-2-(2-quinolin-2-ylethyl)[1,2,4]triazolo[4,3-a]pyridin-3(2H)-one]
15 | 74 nM | – | Cc1cccn2c(=O)n(CCc3ccc4ccccc4n3)nc12 [Compound A-2, 8-methyl-2-(2-quinolin-2-ylethyl)[1,2,4]triazolo[4,3-a]pyridin-3(2H)-one]
16 | 17 nM | – | Cc1ccc(-c2cccc3nn(CCc4ccc5ccccc5n4)c(=O)n23)cc1 [Compound A-3, 5-(4-methylphenyl)-2-(2-quinolin-2-ylethyl)[1,2,4]triazolo[4,3-a]pyridin-3(2H)-one]
17 | 23 nM | – | O=c1n(CCc2ccc3ccccc3n2)nc2cccc(-c3cncs3)n12 [Compound A-4, 2-(2-quinolin-2-ylethyl)-5-(1,3-thiazol-5-yl)[1,2,4]triazolo[4,3-a]pyridin-3(2H)-one]
18 | 20 nM | – | O=c1n(CCc2ccc3ccccc3n2)nc2cccc(-c3ccccc3)n12 [Compound A-5, 5-phenyl-2-(2-quinolin-2-ylethyl)[1,2,4]triazolo[4,3-a]pyridin-3(2H)-one]
19 | 19 nM | – | O=c1n(CCc2ccc3ccccc3n2)nc2cccc(N3CCCCC3)n12 [Compound A-6, 5-piperidin-1-yl-2-(2-quinolin-2-ylethyl)[1,2,4]triazolo[4,3-a]pyridin-3(2H)-one]
20 | 12 nM | – | O=c1n(CCc2ccc3ccccc3n2)nc2cccc(NCc3cccnc3)n12 [Compound A-7, 5-[(pyridin-3-ylmethyl)amino]-2-(2-quinolin-2-ylethyl)[1,2,4]triazolo[4,3-a]pyridin-3(2H)-one]
21 | 72 nM | – | CC(C)(O)c1cccc2nn(CCc3ccc4ccccc4n3)c(=O)n12 [Compound A-8, 5-(1-hydroxy-1-methylethyl)-2-(2-quinolin-2-ylethyl)[1,2,4]triazolo[4,3-a]pyridin-3(2H)-one]
22 | 2 nM | 0.1 to 10 nM | Cn1cc(-c2ccccc2)nc1CCn1nc2cccc(-c3ccncc3)n2c1=O [Compound B-1, 2-[2-(1-methyl-4-phenyl-1H-imidazol-2-yl)ethyl]-5-pyridin-4-yl[1,2,4]triazolo[4,3-a]pyridin-3(2H)-one]
